The values below come from PMC9072872, “Structure-based design of nucleoside-derived analogues as sulfotransferase inhibitors” (RSC Advances, 2019).

Assay [1] has as its target T1, HS2ST (Gallus gallus, UniProt Q76KB1).
T1 construct: made in house; host or cells: E. coli Rosetta-gami (DE3)
T1 sequence (Q76KB1 1-356): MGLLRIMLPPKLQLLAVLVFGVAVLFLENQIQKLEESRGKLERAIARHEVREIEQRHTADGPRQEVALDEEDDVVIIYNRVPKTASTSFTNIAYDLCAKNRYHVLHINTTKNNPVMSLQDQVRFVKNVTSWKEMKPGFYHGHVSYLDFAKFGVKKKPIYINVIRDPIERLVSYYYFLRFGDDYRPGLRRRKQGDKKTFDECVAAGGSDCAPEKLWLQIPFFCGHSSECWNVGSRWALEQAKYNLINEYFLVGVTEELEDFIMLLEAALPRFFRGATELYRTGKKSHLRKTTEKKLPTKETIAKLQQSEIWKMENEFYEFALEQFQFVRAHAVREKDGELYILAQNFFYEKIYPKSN
Kind of assay: Microfluidic mobility shift sulfation assay, HS2ST (fluorescent hexasaccharide substrate). To be noted: read-out: IC50 against HS2ST. In kind it is biochemical, chicken. The protocol: (§1) Compounds were initially screened at 400 μM in the presence 20 nM HS2ST and 0.1 μM TPST1 respectively.
(§2) Fig. 4 Summary of enzymatic inhibition assays against HS2ST and TPST1. (A) Enzymatic analysis of HS2ST1 inhibition by a panel of PAP- and PAPS-mimetic compounds. […] HS2ST sulfotransferase activity was assayed using a fluorescent hexasaccharide substrate (2 μM) and normalised to DMSO (4% v/v) or buffer control. Data shown is mean and SD of 4 repeat experiments. (B) Full dose–response curves for selected compounds. […] HS2ST activity calculated as previously described. Data from two independent experiments are combined. (C) Enzymatic analysis of TPST1 inhibition by a panel of PAP- and PAPS-mimetic compounds. […] TPST1 activity was measured using fluorescently-labelled CC4-tide (2 μM) and normalised to DMSO (4% v/v) or buffer control. (D) Full dose–response curves for selected compounds. […] TPST1 activity was measured using CC4-tide and normalised to DMSO or buffer controls as previously described. The data shown is from duplicate experiments.
N-sulfated, fluorescein-tagged HS2ST1 hexasaccharide glycan substrate (GlcNS-GlcA- GlcNS-IdoA-GlcNS-GlcA-fluorescein, where S=sulfation) containing L-IdoA at the third residue from the reducing end (to which a linker and the fluorophore were conjugated) was purchased from GLY CAN therapeutics. TPST1 peptide substrate (CC4-tide, 5-FAM-EDFED YEFDG-CONH2) was synthesised using solid-phase Fmoc chemistry (Pepceuticals, Leicester, UK). All standard laboratory biochemicals, were purchased from Sigma, and were of the highest analytical quality.
(§3) 5'-phosphosulfate, lithium salt hydrate, PAP (adenosine 3',5'-diphosphate, disodium salt), CoA (coenzymeA, sodium salt), ATP (adenosine 5’-triphosphate, disodium salt hydrate) were all purchased from Sigma and stored at -80 °C to minimise degradation.
Recombinant Protein Production and SDS-PAGE […]
(§4) Microfluidics-Based Sulfation Assay
(§5) Non-radioactive microfluidic mobility shift peptide and carbohydrate sulfation assays were performed in solution with a 12-sipper chip coated with SR8 reagent and a Perkin Elmer EZ Reader II system 8 using an EDTA-based separation buffer and real-time kinetic evaluation of substrate sulfation. Pressure and voltage settings were adjusted manually to afford optimal separation of the sulfated product and non-sulfated substrate, with a sample (sip) volume of 20 nL, and total assay tim es appropriate for the experiment. The fluorophore tagged TPST1 peptide substrate and HS2ST1 glycan substrate where detected by the EZ Reader via LED-induced fluorescence.
(§6) Individual sulfation assays were assembled in a 384 well plate in a volume of 80 µL in the presence of […]
(§7) and 5 mM MgCl2. The degree of substrate sulfation was directly calculated using EZ Reader software by measuring the sulfo-product:non-sulfated substrate ratio at each time-point. The act ivity of the sulfotransferase enzymes in the presence of biochemicals and small molecule inhibitors was quantified in ‘kinetic mode’ by monitoring the amount of sulfated product generated over the assay time, relative to control assay with no additional inhibitor molecule (DMSO or buffer control). Data was normalized with respect to these control assays, with sulfate incorporation into the substr ate limited to ~ 20% to prevent depletion of PAPS and to ensure assay linearity. K m and IC50 values were determined by non-linear regression analysis with GraphPad Prism software. […]

Assay [2] deals with T2, TPST1 (Homo sapiens, UniProt O60507).
T2 construct: Human TPST1 (residues Lys43-Leu360) enzyme was purified as a recombinant protein; made in house
T2 sequence (O60507 43-360): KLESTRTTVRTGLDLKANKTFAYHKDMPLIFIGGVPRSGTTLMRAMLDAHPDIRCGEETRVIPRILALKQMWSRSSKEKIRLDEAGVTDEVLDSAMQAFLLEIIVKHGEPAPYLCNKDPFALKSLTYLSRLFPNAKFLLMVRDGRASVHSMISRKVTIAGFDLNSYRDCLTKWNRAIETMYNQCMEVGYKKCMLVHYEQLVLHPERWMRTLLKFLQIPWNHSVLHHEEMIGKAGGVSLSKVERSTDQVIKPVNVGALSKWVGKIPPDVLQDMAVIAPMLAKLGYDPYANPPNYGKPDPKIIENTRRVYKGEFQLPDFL
Put plainly: Immunoblot of GST-CC4tide tyrosine sulfation by TPST1 (anti-sulfotyrosine antibody). In kind it is biochemical. To be noted: compound 400 μM, GST-CC4-tide 1 μg, TPST1 0.2 μg, PAPS 5 μM, 15 min. The protocol: In order to further assess TPST1 inhibition by 2′-deoxy-PAP and compounds 1–14 using a complementary assay, immunoblotting of a TPST1 protein substrate (GST-CC4tide) was implemented with a monoclonal antibody that specifically recognises sulfotyrosine, using PAP as positive control (Fig. 5A). Compounds were screened at 400 μM in the assay. In common with the […] enzyme assay using a synthetic peptide, a broad range of inhibitory activities was observed.
Fig. 5 Immunological evaluation of TPST1 inhibition towards substrate and a Ser/Thr protein kinase counter-screen. (A) Immunoblots evaluating TPST1 sulfotransferase activity in the presence of a panel of PAP- and PAPS-mimetic compounds. […] After termination of the reaction using SDS-PAGE sample buffer, tyrosine sulfation was visualised by immunoblotting using a monoclonal sulfotyrosine antibody (top panel), with equal GST-CC4-tide and TPST1 loading confirmed using an antibody to detect 6xHis tagged proteins (bottom panel). (B) Enzymatic inhibition of PKA catalytic activity by a panel of PAP- and PAPS-mimetic compounds. PKA kinase (1 nM) was incubated with ATP (5 μM) in the presence of the appropriate nucleoside analogue (400 μM) for 30 min at 20 °C. PKA activity was calculated in real-time using fluorescently-labelled substrate peptide (2 μM) and normalised to DMSO (4% v/v) or buffer control.[77] Data in B is mean and SD of 3 individual experiments. Staurosporine is included at 40 μM as a generic inhibitor of kinase activity. […]
All standard laboratory biochemicals, were purchased from Sigma, and were of the highest analytical quality.
as §3
(§8) Recombinant Protein Production and SDS-PAGE
(§9) Human TPST1 (residues Lys43-Leu360) enzyme was purified as a recombinant protein containing an N-terminal 6xHis tag as previously described. […]
pMAL-c2x plasmid encoding an N-terminal Maltose Binding Protein (MBP) affinity tag.6 Glutathione-S-transferase (GST) tagged CC4-tide ([…]) was cloned into pOPINJ (OPPF-UK) and […]
affinity purified from BL21 (DE3) pLysS E. coli using Glutathione-Sepharose 4B (GE Healthcare). 5 For SDS-PAGE, proteins were denatured in Laemmli sample buffer, heated at 95 °C for 5 min and then analysed by SDS-PAGE with 10% (v/v) polyacrylamide gels. Gels were stained and de-stained using a standard Coomassie Brilliant Blue protocol. To evaluate protein sulfation by immunoblotting, standard western blotting procedures were followed using monoclonal anti-sulfotyrosine ant ibody clone o-1C-A2 (Millipore) generated using a phage display procedure and sulfotyrosine selection peptide antigens7 in the presence of appropriate positive and negative controls, and modifications visua lised using ECL […]
Data was normalized […]
with respect to these control assays, with sulfate incorporation into the substr ate limited to ~ 20% to prevent depletion of PAPS and to ensure assay linearity. K m and IC50 values were determined by non-linear regression analysis with GraphPad Prism software. […]
Background: A western blot detects proteins with antibodies after separation by electrophoresis.

The test system of assay [3] is sulfotransferase. The arrangement: method as in PMID 29934491, PMID 29934490. To be noted: non nucleoside-derived; cited from earlier work.
The target of assay [4] is T2, TPST1. Put plainly: Microfluidic mobility shift sulfation assay, TPST1 (fluorescent CC4-tide substrate). To be noted: for IC50: read-out: IC50 against TPST1. In kind it is biochemical. As to the method:
as §1
as §2, with “duplicate experiments. […]” for “duplicate experiments.”
TPST1 peptide substrate (CC4-tide, 5-FAM-EDFED YEFDG-CONH2) was synthesised using solid-phase Fmoc chemistry (Pepceuticals, Leicester, UK). All standard laboratory biochemicals, were purchased from Sigma, and were of the highest analytical quality.
as §3, §8, §9, §4, §5, §6, §7

As usually defined, the IC50 is the concentration that inhibits the measured activity by half. Turning to `Nc1ncnc2c1ncn2[C@H]1C[C@H](OP(=O)(O)O)[C@@H](Cn2cc(C(=O)O)nn2)O1` [Compound 8], in assay [1], the IC50 lay in the range of 100 to 300 µM. Further, the “suppression of tyrosine sulfation (immunoblot)” value (from here on “suppression”) in assay [2] is “partial suppression”.

In the case of `CC(=O)c1c(O)c(C)c(O)c(Cc2c(O)c3c(c(C(=O)/C=C/c4ccccc4)c2O)OC(C)(C)C=C3)c1O` [rottlerin], the sulfotransferase inhibitor potency entry in assay [3] is listed as “low/sub-micromolar”. As for `COC(=O)COC1CC(n2cnc3c(N)ncnc32)OC1COP(=O)(O)O` (stereo not drawn) [Compound 5], in assay [4], the IC50 was 100 to 300 µM. For the same compound, in assay [2], the “suppression” value was “complete suppression”.

For `Nc1ncnc2c1ncn2[C@H]1C[C@H](O)[C@@H](Cn2cc(C(=O)O)nn2)O1` [Compound 7], the “inhibitory activity against TPST1” value in assay [4] (compound 400 μM, TPST1 0.1 μM, PAPS 5 μM) is “showed activity”. Moreover, the “suppression” value in assay [2] is “did not show any activity”. `COC(=O)COC1CC(n2cnc3c(N)ncnc32)OC1COP(=O)(O)OCc1ccccc1` (stereo not drawn) [Compound 6]: the IC50 in assay [4] was 100 to 300 µM. Moreover, the “suppression” value in assay [2] is “complete suppression”. For the compound `Nc1ncnc2c1ncn2[C@@H]1O[C@H](COP(=O)(O)O)[C@@H](OP(=O)(O)O)[C@H]1O` [PAP, adenosine 3′,5′-diphosphate, reference compound], the IC50 in assay [1] came to 2 µM; in assay [4] it was 1.5 µM. With `Nc1ncnc2c1ncn2[C@H]1C[C@H](OCC(=O)NO)[C@@H](COCC(=O)NO)O1` [Compound 3], the “suppression” value in assay [2] is “partial suppression”. For `Nc1ncnc2c1ncn2[C@H]1C[C@H](O)[C@@H](Cn2cc(C(=O)OCc3ccccc3)nn2)O1` [Compound 9], in assay [1], the IC50 lay in the range of 100 to 300 µM. For the same compound, in assay [2], the “suppression” value was “partial suppression”. Take `Cc1ccc(C(=O)Nc2ccc(S(=O)(=O)O)c3cc(S(=O)(=O)O)cc(S(=O)(=O)O)c23)cc1NC(=O)c1cccc(NC(=O)Nc2cccc(C(=O)Nc3cc(C(=O)Nc4ccc(S(=O)(=O)O)c5cc(S(=O)(=O)O)cc(S(=O)(=O)O)c45)ccc3C)c2)c1` [suramin]: the sulfotransferase inhibitor potency entry in assay [3] is given as “low/sub-micromolar”.
